ChEMBL document CHEMBL3507680, “University of Dundee, Gates Library screen for HepG2 cell viability”

Test: Human HepG2 cell viability assay in 384 well format
Format: toxicity, cell-based
Set-up: dose 125 nL, time 70.5 hour; cytotoxicity at 70.5 h: concentration not given beside the values
Conditions: HepG2 cells, read-out: Inhibition

| Structure (SMILES) | cytotoxicity at 70.5 h |
| --- | --- |
| CN(C)C(=O)CN1CCCC2(CCN(c3ccc(C#N)cn3)C2)C1 (centres undefined) | 8.76% |
| O=S(=O)(NCC1CCN(c2cnccn2)CC1)c1ccc(F)c(Cl)c1 | -1.36% |
| CCc1cc(NC2CCN(S(C)(=O)=O)CC2)n2nc(C)c(C)c2n1 | -1.04% |
| COCCN1C(=O)CO[C@H]2CN(Cc3ccccc3Cl)C[C@@H]21 | -9.25% |
| Cc1nc(CCCNC(=O)C2CC(=O)N(C3CC3)C2)sc1C (centres undefined) | 3.65% |
| Cc1nccn1CCCC(=O)Nc1nc(C(C)C)nn1C | 10.2% |
| COc1ccc(C(C)Nc2cnn(C)c(=O)c2Cl)cc1OC (centres undefined) | -3.5% |
| CNc1ncccc1CN1CCN(C(C)=O)CC(C(N)=O)C1 (centres undefined) | -4.74% |
| O=C(CCn1c(C(F)(F)F)cc2cccnc21)N1CCC(O)CC1 | 2.54% |
| CCN(Cc1ccc(Cl)c(Cl)c1)C(=O)CCn1cncn1 | -10.7% |
| Cc1nn(C)c(C)c1C1CCCN1CC(=O)Nc1cccnc1 (centres undefined) | 23.1% |
| O=C1N(CCc2ccccc2)CCCC12CCN(C(CO)CO)C2 (centres undefined) | -4.14% |
| Cc1nnc(N2CCCC3(CN(c4ccccn4)CCO3)C2)o1 (centres undefined) | 1.16% |
| COc1cccc(NC(=O)Cc2c(C)nc3c(c2C)c(=O)[nH]n3C)c1 | -6.7% |
| Fc1cccc(-c2nnn3c2COC(CNCc2cccs2)C3)c1 (centres undefined) | 1.1% |
| Cc1cc(CN2CCOC(CNc3cccnn3)C2)on1 (centres undefined) | -0.746% |
| COCCN1CCCN(C(=O)NC(C)Cn2ccnc2)CC1 (centres undefined) | 2.76% |
| O=C(NC1CCCC1)NC1CCC(C(=O)N2CCSCC2)CC1 (centres undefined) | -9.08% |
| O=C(c1ccn(-c2cccc(F)c2)n1)N1CCN(CC2CC2)CC1 | -7.87% |
| FC(F)(F)c1ccc2[nH]c([C@H]3CCNC3)nc2c1 | -2.06% |
| Cc1nccn1-c1cccc(N2CCC(OCC3CCCCO3)CC2)n1 (centres undefined) | -11.6% |
| CCCc1cc(C(=O)N2CCC3(CCCNC3=O)C2)cs1 (centres undefined) | -0.581% |
| Cc1nc(C(=O)N2CCCC2c2noc(C3CC3)n2)c[nH]1 (centres undefined) | -0.671% |

| Structure (SMILES) | cytotoxicity at 70.5 h |
| --- | --- |
| CC(C)NC(=O)CCN1CCC(C(=O)c2cc(F)ccc2F)CC1 | -7.21% |
| CC1c2ncc(COCC3CC3)n2CCN1C(=O)c1ccnn1C (centres undefined) | -10.2% |
| Cc1ccc2ncn(CC(O)CN3CCC(C)CC3)c(=O)c2c1 (centres undefined) | 19.7% |
| Cc1ncc2c(n1)CN(Cc1nc3ccccc3o1)CC2 | 11.4% |
| CN(C)c1nccc(C2CN(S(C)(=O)=O)C2)n1 | -1.11% |
| O=C(CCCNCc1ccc(Cl)c2cccnc12)NC1CC1 | -1.79% |
| Cc1cnc(C(=O)N2CCC3(CC2)CN(c2ccccn2)CCO3)cn1 | -6.44% |
| Cc1cc(CN2CCN(C(=O)NCc3ccoc3)CC2)no1 | -1.05% |
| CC(=O)N1CCCCCC1C1CCN(Cc2nnc(C(C)(C)C)o2)CC1 (centres undefined) | -5.64% |
| COCCn1ccnc1CN1CCc2[nH]cnc2C1c1cnn(C)c1C (centres undefined) | -13.2% |
| COCCC(=O)N1CCC2(COCc3cnc(-c4ccccc4)nc32)C1 (centres undefined) | 2.54% |
| CC(=O)N1CCCN(C(C)C(=O)Nc2ccnn2C(C)C)CC1 (centres undefined) | -3.26% |
| CC(C)n1cc(C(=O)NC2CCS(=O)(=O)C2)c2ccccc2c1=O (centres undefined) | -14.3% |
| CCc1c(C(=O)NC2CCS(=O)(=O)C2)cnn1-c1ccc(C)cc1 (centres undefined) | -6.41% |
| Cc1ccc(C(=O)N2CC(=O)N(Cc3cccs3)CC(O)C2)cc1 (centres undefined) | -0.413% |
| COCC(=O)N1CCC(c2csc(NC(C)=O)n2)CC1 | -8.01% |
| Cc1nn(C)c(C)c1OCC(=O)NCc1cccc(CO)c1 | 2.69% |
| COc1ccc(CN2CCn3cc(CN4CCN(C)CC4)nc3C2)cc1 | -7.16% |
| Cc1ncc(CC(=O)N2C[C@@H]3CC[C@H](C2)N(CC2CCC2)C3)c(=O)[nH]1 | -17.8% |
| CCC1(c2ccc(NS(=O)(=O)c3ccc(Cl)s3)cc2)CCC(=O)NC1=O (centres undefined) | -11.2% |
| Cc1ccccc1C(C)CC(=O)N1CC[C@H](O)C1 (some centres undefined) | -2.39% |
| Cc1ccn(CCC(=O)N2CCCC(Cc3cccnc3)C2)n1 (centres undefined) | -5.66% |
| CC(=O)N1CCC2(CC1)CC(NS(C)(=O)=O)c1ccccc1O2 (centres undefined) | -4.04% |

| Structure (SMILES) | cytotoxicity at 70.5 h |
| --- | --- |
| Cc1noc(C2CCC3(CCN(C(=O)c4sccc4C)CC3)O2)n1 (centres undefined) | -4% |
| CC(C)COC(C)C(=O)N1CCC(C)CC1 (centres undefined) | 3.43% |
| Cc1nc(C)n(CC2CCCCN2CCc2ccncc2)n1 (centres undefined) | 16.8% |
| Cc1noc(C)c1CN1C[C@@H]2CCCO[C@@H]2[C@H](NS(C)(=O)=O)C1 | -9.8% |
| c1ccc(-c2noc([C@@H]3Cc4nc[nH]c4CN3)n2)cc1 | -14% |
| Cn1cc(N2C(=O)CC[C@@H]3[C@H]2CCN3Cc2nccs2)cn1 | -11.9% |
| Cc1nnsc1C(=O)NCCn1ccc(-c2ccncc2)n1 | 18.8% |
| COCCn1cc(NCc2cccc3cn[nH]c23)cn1 | -5.47% |
| CS(=O)(=O)CCn1ccc(NC(=O)Cc2cccc(Cl)c2)n1 | -0.645% |
| Cc1cc(C)n(CC(=O)N2CCC(c3cc4cccnc4[nH]3)CC2)n1 | 29.7% |
| CCOc1ncnc2c1CCN(C(=O)c1cnccn1)CC2 | 1.88% |
| Cc1ncc(C(=O)N2CCCC2(C)C(=O)N2CCOCC2)c(C)n1 (centres undefined) | -7.99% |
| Cc1cccc(Cc2nc3c([nH]2)CCCNC3=O)c1 | -5.33% |
| Cc1nnc(NCc2ccc(N3CCC(CO)CC3)cc2)c(C#N)c1C | -1.7% |
| Cc1cc(NC(=O)CN2CCOC(CN(C)C)C2)n(C)n1 (centres undefined) | 17.6% |
| Cc1nc(NCC(O)CN2CCCCCC2)c2c(C)noc2n1 (centres undefined) | -5.74% |
| CCSCCC(=O)Nc1ncn(Cc2ccccc2)n1 | -14.4% |
| CN(Cc1cccs1)C(=O)CN1CCCC1Cn1cncn1 (centres undefined) | 2.88% |
| CN(CC1(CO)CCCC1)c1nc2c(c(=O)[nH]1)Cc1ccccc1OC2 | -10% |
| Clc1ccc(-n2nnnc2C2(NCc3ccco3)CCCCC2)cc1 | -11.2% |
| Cc1nc(CN(C)Cc2cc3c(cc2OC(F)F)OCO3)oc1C | 4.89% |
| Cc1ccc([C@]2(O)CC[C@H]3CN(Cc4ccc(Cl)cc4Cl)C[C@H]32)nc1 | 27.6% |
| CCc1nc(CCNC(=O)Nc2cc(C(N)=O)ccc2OC)cs1 | -12.4% |

| Structure (SMILES) | cytotoxicity at 70.5 h |
| --- | --- |
| c1cnc(N2C[C@H]3CN(CC4CCOC4)C[C@H]3C2)nc1 (some centres undefined) | -4.56% |
| Cc1ccc(N2CCN(C(=O)COc3ncccn3)CC2)nn1 | -7.37% |
| O=S(=O)(Cc1ccccc1)NCCNc1ccc(-n2cccc2)nn1 | -13.6% |
| CCN(Cc1cccc(NC(=O)COC)c1)C(C)=O | 27.5% |
| CC(Cc1cnccn1)NC(=O)c1cccc(CC2CCNCC2)c1 (centres undefined) | 14% |
| CCOc1ccc(Cl)cc1CCNC(=O)c1ccc(=O)n(C)c1 | -10.2% |
| Cc1ccc(C(=O)N2CCC3(CC2)CN(CCN(C)C)C(=O)O3)c(F)c1 | 7.08% |
| N#Cc1cnc(NCCCN2C(=O)COc3ccccc32)c(Cl)c1 | 2.01% |
| CC(C)C(=O)N1CCCC12CCN(C(=O)c1ccno1)C2 (centres undefined) | -1.72% |
| CC(=O)NCCNCC1(O)CCCN(CCC2CCCCC2)C1=O (centres undefined) | -1.79% |
| CC(=O)c1cccc(-c2nc3c([nH]2)CCNC3)c1F | -13.2% |
| Cc1cnn(CC2CCCCN2C(=O)c2csc(C)n2)c1 (centres undefined) | -3.43% |
| CCCNC(=O)CN1CCC(NC(=O)c2cc(CC)ccc2O)CC1 | -6.46% |
| COc1ccc(CNC(=O)c2ccc(Br)cn2)cc1 | 13.3% |
| CCN(Cc1ncc(C(C)(C)C)o1)Cc1ccccc1C | -1.58% |
| O=C(O)C(c1ccc2c(c1)OCCO2)N1CCCCCC1 (centres undefined) | -7.26% |
| Cc1cc(C)nc(C2CCCN2S(=O)(=O)N2CCOCC2)n1 (centres undefined) | -4.98% |
| Cc1ocnc1C(=O)N1CCCN(Cc2cscn2)CC1 | 21.9% |
| O=C(Nc1cccnc1-n1cccn1)N1CCCC(N2CCCC2)C1 (centres undefined) | -4.62% |
| O=S(=O)(C1CC1)N1CCc2ncnc(-c3ccncc3)c2CC1 | -0.987% |
| COCCN1CCN(CCCS(=O)(=O)N(C)C)CC1C (centres undefined) | -2.19% |
| CN(Cc1nc(CC2CC2)no1)CC1COc2ccccc2O1 (centres undefined) | -3.03% |
| COCCN1CCc2ccccc2NCCC1=O | -6.61% |

| Structure (SMILES) | cytotoxicity at 70.5 h |
| --- | --- |
| CC(=O)NC[C@@H]1C=C(C)[C@H](CC(=O)NCc2cccnc2)C[C@H]1C(C)C | 4.62% |
| Cc1ccc(CNC(=O)c2c[nH]nc2NC(=O)C2CCC2)cc1 | -7.26% |
| O=C(c1ccno1)N1C[C@@H](F)[C@@H](OCc2nc3ccccc3o2)C1 | 0.816% |
| Cc1noc(C)c1CSC1CCCN(c2cnn(C)c2)C1=O (centres undefined) | 5.52% |
| COc1ccc(C(=O)N2CCCC(CNS(C)(=O)=O)C2)cc1F (centres undefined) | -10.9% |
| NC(=O)NC(CC(=O)N1CCc2sccc2C1)c1ccccc1F (centres undefined) | -17.5% |
| Cc1nccn1CCCn1cncc1-c1ccc2c(c1)CC(C)N2C (centres undefined) | 3.68% |
| CN(C)CC1CN(Cc2ccc(-n3cccn3)cc2)CCO1 (centres undefined) | 0.969% |
| CCS(=O)(=O)CC(=O)Nc1cccc2c1CN(CC(C)C)C2 | -0.0392% |
| CCn1nc(C)c2nc(C)nc(NCCCn3cccn3)c21 | -7.44% |
| O=C1[C@@H]2CCN(Cc3ccccn3)C[C@@H]2OCCN1c1ccccc1 | -4.44% |
| NC(=O)COc1ccc(CN2CCC3(CC2)[C@H](O)C[C@@H]3O)cc1Cl | 19.2% |
| CNc1cc(CCNC(=O)c2cccnc2)nc(-c2ccncc2)n1 | -7.53% |
| CC(C)c1nncn1CCNC(=O)c1ccc(Cl)cc1O | 0.918% |
| CNC(=O)c1cc2c(nc1NCC(C)C)CCN(CC1CC1)CC2 | -9.46% |
| Cc1cc(-n2cncn2)ccc1C(=O)N(C)CC(F)(F)C(F)(F)F | -5.19% |
| Cc1ccccc1OCCCC(=O)NCc1ccnc(O)c1 | -11.5% |
| CCCn1ncc(CN(Cc2cccnc2)Cc2cccs2)c1C | 21.4% |
| CCN(CC)C(=O)[C@@H]1C[C@@H](NC(=O)c2ccoc2)CN1C | 25.9% |
| CCOCCN1CCN(CC(O)c2ccc(F)cc2)CC1 (centres undefined) | -6.89% |
| CC(C)[C@H]1CN(c2ccnc(N)n2)C[C@@H]1NC(=O)C1(C#N)CCOCC1 | -9.5% |
| CC1COCCN1Cc1nc(-c2ccc(F)cc2)no1 (centres undefined) | -0.197% |
